Test results as given in US11834443B2, “Crystalline form of the compound (s)-3-{4-[5-(2-cyclopentyl-6-methoxy-pyridin-4-yl)-[1,2,4]oxadiazol-3-yl]-2-ethyl-6-methyl-phenoxy}-propane-1,2-diol” (Idorsia Pharmaceuticals Ltd, priority 2015, dated 2023).
In brackets after ≈: the same amount, converted by molar mass.

Legend:
[1] = Gravimetric vapour sorption (GVS) analysis, hygroscopicity; assay type: physicochemical; conditions: mass change between 40% and 80% relative humidity, first adsorption scan, 25° C.
Experimental: Gravimetric Vapour Sorption (GVS) Analysis:
Measurements were performed simultaneously for the COMPOUND in the crystalline form A, B, and C on a multi sample instrument SPS-100n (Projekt Messtechnik, Ulm, Germany) operated in stepping mode at 25° C.

Aqueous solubility = assay type: physicochemical; conditions: in water

CCc1cc(-c2noc(-c3cc(OC)nc(C4CCCC4)c3)n2)cc(C)c1OC[C@@H](O)CO [Form C, (S)-3-{4-[5-(2-cyclopentyl-6-methoxy-pyridin-4-yl)-[1,2,4]oxadiazol-3-yl]-2-ethyl-6-methyl-phenoxy}-propane-1,2-diol]
hygroscopic classification (European Pharmacopeia Technical Guide) [1]: Slightly hygroscopic | mass gain [1]: 0.8%

CCc1cc(-c2noc(-c3cc(OC)nc(C4CCCC4)c3)n2)cc(C)c1OC[C@@H](O)CO [Form B, (S)-3-{4-[5-(2-cyclopentyl-6-methoxy-pyridin-4-yl)-[1,2,4]oxadiazol-3-yl]-2-ethyl-6-methyl-phenoxy}-propane-1,2-diol]
hygroscopic classification (European Pharmacopeia Technical Guide) [1]: Slightly hygroscopic | mass gain [1]: 0.5%

CCc1cc(-c2noc(-c3cc(OC)nc(C4CCCC4)c3)n2)cc(C)c1OC[C@@H](O)CO [Form A, (S)-3-{4-[5-(2-cyclopentyl-6-methoxy-pyridin-4-yl)-[1,2,4]oxadiazol-3-yl]-2-ethyl-6-methyl-phenoxy}-propane-1,2-diol]
hygroscopic classification (European Pharmacopeia Technical Guide) [1]: Non-hygroscopic | mass gain [1]: less than 0.2%

CCc1cc(-c2noc(-c3cc(OC)nc(C4CCCC4)c3)n2)cc(C)c1OC[C@@H](O)CO [COMPOUND, (S)-3-{4-[5-(2-cyclopentyl-6-methoxy-pyridin-4-yl)-[1,2,4]oxadiazol-3-yl]-2-ethyl-6-methyl-phenoxy}-propane-1,2-diol]
solubility (Aqueous solubility): ~0.06 µg/mL (≈ 0.132 µM)
